This is an account of results in patent US5863550A, “Cholestasis ameliorant” (Tokyo Tanabe Company Limited, priority 1993, dated 1999).

“Also recorded” adds a separate entry of the source. Bounds are passed on as bounds.

The test system of data set [1] is bile flow reduction induced by estradiol-17β-D-glucuronide (E-17-G). As to the kind of experiment: Ameliorative effect against cholestasis in rats (E-17-G-induced reduction of bile flow). The data set is classed as in vivo, female SD rats. The procedure:
An extra external-biliary fistula was developed in female SD rats under anesthesia and, after bile collection for 30 minutes, estradiol-17β-D-glucuronide (E-17-G) was administered via their femoral veins as a single dose of 10 μ mole/kg. Immediately after the administration, tauroursodeoxycholic acid was continuously administered over two hours via the femoral veins at a rate of 0.6 μ mole/min/100 g body weight, and the bile flow was measured serially.

Data set [2] concerns hepatic injury induced by α-naphthylisothiocyanate (ANIT). As to the kind of experiment: Protective effect against hepatic injury in mice (ANIT). The data set is classed as in vivo, male ICR mice. The procedure:
Tauroursodeoxycholic acid was administered to male ICR mice via their caudal veins at a dose within a range of 100 to 1200μ mole/kg two hours before and two hours after an administration of α-naphthylisothiocyanate (ANIT) as a single dose of 80 mg/kg. Serum bilirubin concentration, total bile acid concentration and LDH activity were measured two days after the ANIT administration.

A short description of data set [3]: Acute toxicity (LD50), intravenous, beagle dogs. Also on record: species or system 8 to 11-month old beagle dogs. The following applies: dog, in vivo, both sexes. On the procedure:
(§1) The acute toxicity (LD50) of intravenously administered tauroursodeoxycholic acid was evaluated in 6-week old male and female CD rats and 8 to 11-month old male and female beagle dogs. The LD50 was 600 to 800 mg/kg in male rats and 800 to 1000 mg/kg in female rats.

The nature of data set [4]: Solubility in water. The data set is classed as physicochemical. To be noted: in words.
A short description of data set [5]: Acute toxicity (LD50), intravenous, rats. More on the design: species or system 6-week old CD rats. To be noted: rat, in vivo. On the procedure: as §1
The test system of data set [6] is patients with cholestasis. As to the kind of experiment: Clinical results of tauroursodeoxycholic acid injection (patients with cholestasis / jaundice). It is filed as in vivo, human (patients). On the procedure: Since tylosis of the gallbladder walls was observed by abdominal ultrasonic imaging and there were severe icteric symptoms, this case was diagnosed as cholestasis due to drug-induced hepatopathy.
At a stage when moderate jaundice still remained (total bilirubin: 6.9 mg/dl) and no improvement had been noted in subjective symptoms such as skin itching and epigastric discomfort, tauroursodeoxycholic acid was intravenously injected once a day at a dose of 100 mg for 14 days. As a result, the total bilirubin level, GOT and GPT were decreased to 2.1 mg/dl, 45 U/l and 36 U/l, respectively, and the icteric symptoms as well as the subjective symptoms such as skin itching and epigastric discomfort were disappeared.
[…] After the patient came back to Japan on April 5 and was hospitalized, tauroursodeoxycholic acid was intravenously administered once a day at a dose of 100 mg for 14 days.
At a stage when moderate jaundice was observed (total bilirubin: 9.0 mg/dl, GOT: 838 U/l, GPT 451 U/l), tauroursodeoxycholic acid was administered once a day at a dose of 300 mg by intravenous drip infusion for 14 days.
This patient was diagnosed to suffer from cholestasis due to acute viral hepatitis based on results of immuno-serological test including GOT of 11600 U/l, GPT of 6300 U/l and total bilirubin level of 7.7 mg/dl and HBV positive result of virological test as well as severe icteric symptoms.
At a stage when jaundice was still severe (total bilirubin: 16.19 mg/dl), tauroursodeoxycholic acid was administered once a day at a dose of 300 mg by intravenous drip infusion for 14 days. As a result, the total bilirubin level, GOT and GPT were decreased to 4.4 mg/dl, 48 U/l and 36 U/l, respectively, icteric symptoms were improved from the day after one week of the administration and subjective symptoms such as skin itching and systemic malaise were disappeared by the 10th day of the administration.
This patient began to feel general malaise in late June 1993 and, since jaundice appeared on Jun. 28, they visited a neighboring clinic and received treatment. In spite of that, jaundice was not improved and they referred to our medical institution on July 5. Based on the results of inspections, the patient was diagnosed to suffer cholestasis due to acute viral hepatitis (type B).
Tauroursodeoxycholic acid was administered by intravenous injection once a day at a dose of 600 mg for 18 days from July 8.
This patient noticed jaundice in the middle of May 1993 and consulted a doctor. Their symptom was diagnosed as obstructive jaundice based on images of enlargement of the bilateral intrahepatic bile ducts and 3-4 cm long irregular stenosis in the choledoch observed in endoscopic retrograde cholangiopancreatography (ERCP) and underwent endoscopic […] bile duct drainage (ENBD) on May 31.
Because icteric symptoms were not improved, tauroursodeoxycholic acid was intravenously injected once a day at a dose of 100 mg for 22 days.
This patient was diagnosed to suffer from pancreatic cancer by ERCP. […] Concurrently, icteric symptoms and skin itching were continued. Therefore, tauroursodeoxycholic acid was intravenously injected once a day at a dose of 600 mg for 38 days. As a result, the total bilirubin level was decreased to 3.3 mg/dl, the bile flow was increased from the preadministration level of 230 ml/day to 440 ml/day, and icteric symptoms and skin itching were improved.

The conditions of data set [7]: in words, background; cited from earlier work.
The subject of data set [8] is intrahepatic cholestasis. The following applies: cited from earlier work.
The mark [9] stands for this setting: 100 to 1200 μ mole/kg via caudal veins two hours before and two hours after ANIT 80 mg/kg, two days after ANIT.
Setting [10] is: Example 2 patient, 100 mg i.v. once a day for 14 days, from the day after three days of the administration.
Setting [11] is: Example 5 patient, 600 mg i.v. once a day for 18 days.
The mark [12] stands for this setting: Example 6 patient, obstructive jaundice, ENBD, 100 mg i.v. once a day for 22 days, after one week.

Consider `C[C@H](CCC(=O)NCCS(=O)(=O)O)[C@H]1CC[C@H]2[C@@H]3[C@@H](O)C[C@@H]4C[C@H](O)CC[C@]4(C)[C@H]3CC[C@]12C` [tauroursodeoxycholic acid], for which, in data set [1] (female SD rats, E-17-G 10 μ mole/kg i.v., continuous infusion over two hours via femoral veins), the “infusion rate at or above which the reduction of the bile flow induced by E-17-G was inhibited” value is ≥ 0.3 μ mole/min/100 g body weight. The “inhibition of the reduction of bile flow compared with free ursodeoxycholic acid” value in data set [1] (female SD rats, E-17-G 10 μ mole/kg i.v., comparator free ursodeoxycholic acid) is “more marked than that of free ursodeoxycholic acid”. For the same compound, in data set [1] (general conclusion), the cholagogue effect entry was “exerts cholagogue effect”. In addition, in data set [2] (setting [9]), the “increase of LDH activity induced by ANIT” value is on record as “inhibited”. Besides, in data set [2] (setting [9]), the “increase of serum bilirubin concentration induced by ANIT” value is reported as “inhibited”. Further, in data set [2] (setting [9]), the “increase of total bile acid concentration induced by ANIT” value is “inhibited”. Further, the “protective effect of hepatocyte” value in data set [2] (general conclusion) was “protective effect of hepatocyte”. The LD50 – broadly, the dose expected to kill half of the subjects tested – in data set [3] lay in the range of 300 to 600 mg/kg; in data set [5] (female rats) it was 800 to 1000 mg/kg; in data set [5] (male rats), 600 to 800 mg/kg. Moreover, the solubility in water entry in data set [4] is listed as “better solubility in water as compared with ursodeoxycholic acid; also recorded: high solubility in water; also recorded: excellent solubility in water”. Further, the total bilirubin level was 2.1 mg/dL in data set [6] (Example 1 patient, drug-induced hepatopathy, 100 mg i.v. once a day for 14 days, before: 6.9 mg/dl); 13.7 mg/dL in data set [6] (Example 2 patient, acute viral hepatitis, 100 mg i.v. once a day for 14 days, before: 31.4 mg/dl); 2.8 mg/dL in data set [6] (Example 3 patient, drug-induced hepatopathy, 300 mg once a day i.v. drip infusion for 14 days, before: 9.0 mg/dl); 4.4 mg/dL in data set [6] (Example 4 patient, acute viral hepatitis (HBV positive), 300 mg once a day i.v. drip infusion for 14 days, before: 16.19 mg/dl); “reduced by half” in data set [6] (Example 5 patient, acute viral hepatitis (type B), 600 mg i.v. once a day, after 4 days); “almost within the normal range” in data set [6] (Example 5 patient, acute viral hepatitis (type B), 600 mg i.v. once a day, after one week). Also, the total bilirubin level result in data set [6] (setting [12]) is “decrease of the total bilirubin level”; in data set [6] (Example 7 patient, pancreatic cancer, PTCD, 600 mg i.v. once a day for 38 days, before: around 15 mg/dl), 3.3 mg/dL. For the same compound, the GOT in data set [6] (Example 1 patient, drug-induced hepatopathy, 100 mg i.v. once a day for 14 days, peak before: 548 U/l) is given as 45 U/l; in data set [6] (Example 3 patient, 300 mg once a day i.v. drip infusion for 14 days, before: 838 U/l), 171 U/l; in data set [6] (Example 4 patient, 300 mg once a day i.v. drip infusion for 14 days, at diagnosis: 11600 U/l), 48 U/l. Besides, the GPT in data set [6] (Example 1 patient, drug-induced hepatopathy, 100 mg i.v. once a day for 14 days, peak before: 664 U/l) came to 36 U/l; in data set [6] (Example 3 patient, 300 mg once a day i.v. drip infusion for 14 days, before: 451 U/l), 145 U/l; in data set [6] (Example 4 patient, 300 mg once a day i.v. drip infusion for 14 days, at diagnosis: 6300 U/l) it was 36 U/l. For the same compound, the “icteric symptoms and subjective symptoms such as skin itching and epigastric discomfort” value in data set [6] (Example 1 patient, 100 mg i.v. once a day for 14 days) is “disappeared”. In addition, the “total bile acid level” value in data set [6] (Example 2 patient, acute viral hepatitis, 100 mg i.v. once a day for 14 days, before: 21 μmole/l) turned out to be 12 µmol/L. Moreover, the icteric symptoms result in data set [6] (setting [10]) is reported as “improvement of icteric symptoms”; in data set [6] (Example 4 patient, 300 mg once a day i.v. drip infusion, from the day after one week of the administration), “improved”. In addition, in data set [6] (setting [10]), the “subjective symptoms such as skin itching and anorexia” value is on record as “disappeared”. Moreover, in data set [6] (Example 3 patient, 300 mg once a day i.v. drip infusion for 14 days), the “icteric symptoms due to cholestasis” value is “improvement in icteric symptoms”. In addition, in data set [6] (Example 3 patient, two weeks after the completion of 300 mg once a day i.v. drip infusion for 14 days), the “total bilirubin level, GOT and GPT after completion of administration” value is “no increase was observed”. In data set [6] (Example 4 patient, 300 mg once a day i.v. drip infusion, by the 10th day of the administration), the “subjective symptoms such as skin itching and systemic malaise” value is “disappeared”. For the same compound, in data set [6] (setting [11]), the “icteric symptoms and general malaise” value is recorded as “disappeared”. Besides, the “other parameters related to the liver function” value in data set [6] (setting [11]) was “improved”. The “jaundice and skin itching” value in data set [6] (Example 6 patient, obstructive jaundice, ENBD, 100 mg i.v. once a day for 22 days) is “improvement of jaundice and skin itching”. Further, the bile flow entry in data set [6] (setting [12]) was “apparent increase of bile flow”; in data set [6] (Example 7 patient, pancreatic cancer, PTCD, 600 mg i.v. once a day for 38 days, preadministration 230 ml/day), 440 mL/day. For the same compound, the “icteric symptoms and skin itching” value in data set [6] (Example 7 patient, pancreatic cancer, PTCD, 600 mg i.v. once a day for 38 days) is given as “improved”. The “ameliorative effect against cholestasis” value in data set [6] (general finding, patients with liver diseases) is on record as “ameliorative effect against cholestasis”.
As to `C[C@H](CCC(=O)O)[C@H]1CC[C@H]2[C@@H]3[C@@H](O)C[C@@H]4C[C@H](O)CC[C@]4(C)[C@H]3CC[C@]12C` [ursodeoxycholic acid], the solubility entry in data set [7] is recorded as “very low”. Further, in data set [8] (ursodeoxycholic acid preparations, recently reported in Japan and other countries), the “efficacy against intrahepatic cholestasis” value is recorded as “very high efficacy”.
Turning to `CCC1(c2ccccc2)C(=O)NC(=O)NC1=O` [phenobarbital], the “efficacy in the treatment of intrahepatic cholestasis” value in data set [8] (steroid and phenobarbital preparations currently used) is recorded as “a certain level of, but often insufficient, efficacy”.
